Assay results reported in patent US20160368895A1, “PULMONARY HYPERTENSION TREATING AGENT” (THE UNIVERSITY OF TOKYO, priority 2013, published 2016).

Key:
[1] = biological target: T1, human PGI2 receptors (hIP) (Homo sapiens, UniProt P43119); test: Method D: effect on cAMP production in human aortic smooth muscle cells (left shift value); type: cell-based; conditions: concentration of test compound that halves the EC50 of epoprostenol
T1 construct: expressed in transfected cells; host or cells: CHO-K1
Description: The effect of a test compound on the cAMP production curve with respect to the IP agonist epoprostenol (manufactured by GlaxoSmithKline) was investigated using human aortic smooth muscle cells known to express human PGI2 receptors (hIP).
An amount of 5 μL of a mixture (diluted in F-12 culture medium (manufactured by GIBCO) including 0.1% BSA) of epoprostenol dissolved in DMSO and a test compound dissolved in DMSO was dispensed in advance into a 384-well black microplate, and 5 μL of CHO/hIP cells suspended at a concentration of 1.4×10^6 cells/mL in F-12 culture medium including 0.1% BSA were added to the microplate. After 40 minutes of incubation at room temperature, the amount of cAMP was measured using a cAMP assay kit (cAMP HiRange, manufactured by Cisbio Bioassays). Specifically, 5 μL of a cAMP-d2 solution (including a cell lysate) from the kit were added and the reaction was stopped, then 5 μL of a fluorescence-labeled cAMP antibody solution from the kit were added and incubation was performed for 1 hour at room temperature, after which fluorescence was measured using a PHERAstar plate reader (manufactured by BMG) in HTRF (registered trademark) mode. The amount of cAMP in each well was calculated from a cAMP calibration curve obtained using a standard sample, and an epoprostenol-cAMP production curve for the presence of various concentrations of the test compound was created. […]

[2] = biological target: T1, human PGI2 receptors (hIP); test: Method C: effect on epoprostenol-cAMP production curve in CHO/hIP cells (left shift value); type: cell-based; conditions: Table 4, concentration of test compound that halves the EC50 of epoprostenol
Description: The effect of a test compound on the cAMP production curve with respect to the IP agonist epoprostenol (manufactured by GlaxoSmithKline) was investigated using CHO-K1 cells (CHO/hIP cells) in which human PGI2 receptors (hIP) are stably expressed.
An amount of 5 μL of a mixture (diluted in F-12 culture medium (manufactured by GIBCO) including 0.1% BSA) of epoprostenol dissolved in DMSO and a test compound dissolved in DMSO was dispensed in advance into a 384-well black microplate, and 5 μL of CHO/hIP cells suspended at a concentration of 1.4×10^6 cells/mL in F-12 culture medium including 0.1% BSA were added to the microplate. After 40 minutes of incubation at room temperature, the amount of cAMP was measured using a cAMP assay kit (cAMP HiRange, manufactured by Cisbio Bioassays). Specifically, 5 μL of a cAMP-d2 solution (including a cell lysate) from the kit were added and the reaction was stopped, then 5 μL of a fluorescence-labeled cAMP antibody solution from the kit were added and incubation was performed for 1 hour at room temperature, after which fluorescence was measured using a PHERAstar plate reader (manufactured by BMG) in HTRF (registered trademark) mode. The amount of cAMP in each well was calculated from a cAMP calibration curve obtained using a standard sample, and an epoprostenol-cAMP production curve for the presence of various concentrations of the test compound was created.

[3] = tested on: thoracic aorta of the marmot; test: Magnus test using a blood vessel removed from a marmot; conditions: 20 μM of test compound; FIG. 2
Description: An incision was made in the thoracic region of a marmot (slc/Harley, male, 11-12 weeks of age) under anesthesia, and the thoracic aorta of the marmot was removed. The vascular endothelium was removed using a thread, after which the blood vessel was cut into a round slice having a width of approximately 2 mm and fixed to a fixing rod using thread or a stainless steel hook, and placed in a 10 mL Magnus tube maintained at a temperature of 37° C. and saturated with a 95% O2/5% CO2 gas mixture, and a tension of 1 g was placed on the blood vessel. When the tension on the specimen became stable, phenylephrine (phenylephrine hydrochloride, PHE, manufactured by Sigma-Aldrich Japan, final concentration: 3×10^−6 mol/L) was added thereto to cause the specimen to contract, the test compound or a solvent was added when the contraction became stable, the IP agonist beraprost (beraprost sodium, manufactured by Cayman Chemical) was cumulatively added after 15 minutes to give a final concentration of 1 nM to 1000 nM, and the change in relaxation response was recorded.
The contraction inhibition rate for each set of data was calculated using a contraction rate of 100% as the control (DMSO addition).

T1 sequence (P43119 whole entry): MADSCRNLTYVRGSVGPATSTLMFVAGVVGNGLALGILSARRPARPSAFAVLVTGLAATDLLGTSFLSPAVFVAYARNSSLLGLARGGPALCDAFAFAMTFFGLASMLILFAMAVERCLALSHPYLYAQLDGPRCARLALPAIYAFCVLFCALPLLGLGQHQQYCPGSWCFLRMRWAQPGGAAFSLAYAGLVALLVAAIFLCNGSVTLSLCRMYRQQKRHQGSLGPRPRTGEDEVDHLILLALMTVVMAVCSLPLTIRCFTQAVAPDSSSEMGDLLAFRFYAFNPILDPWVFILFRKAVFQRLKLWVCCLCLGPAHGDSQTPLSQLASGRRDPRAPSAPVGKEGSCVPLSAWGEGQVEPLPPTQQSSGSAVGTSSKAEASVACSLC

Row | Structure (SMILES) | left shift value [1] | left shift value [2] | enhancement of vasoconstriction inhibition (vasorelaxation) with respect to beraprost [3]
1 | CC(C)(C)n1nnnc1C(c1ccccc1F)N1CCc2ccccc2C1 (centres unmarked) [Example 54] | 2.9 µM | 4.7 µM | –
2 | COc1ccccc1C(c1nnnn1C(C)(C)C)N1CCc2ccccc2C1 (centres unmarked) [Example 51] | 3.9 µM | 4.3 µM | an enhancement of vasoconstriction inhibition (vasorelaxation) with respect to the IP agonist beraprost was recognized
